This note sets out measurements from US8044044B2, “4-(1-amino-ethyl)-cyclohexylamine derivatives” (Actelion Pharmaceutical Ltd., priority 2006, dated 2011).

In assay [1] the test system is S. aureus A798. The assay can be described thus: MIC by broth microdilution (NCCLS), S. aureus A798. To be noted: strain A798, cation-adjusted Mueller-Hinton Broth, pH 7.2-7.3; for MIC: Staphylococcus aureus. Type of assay: cell-based, Staphylococcus aureus. On the procedure:
(§1) These assays have been performed following the description given in “Methods for dilution Antimicrobial Susceptibility Tests for Bacteria that Grow Aerobically, 4th ed.; Approved standard: NCCLS Document M7-A4; National Committee for Clinical Laboratory Standards: Villanova, Pa., USA, 1997”. Minimal inhibitory concentrations (MICs; mg/l) were determined in cation-adjusted Mueller-Hinton Broth (BBL) by a microdilution method following NCCLS guidelines (National Committee for Clinical Laboratory Standards. Methods for Dilution Antimicrobial Susceptibility). The pH of the test medium was 7.2-7.3.
A general note: Dilution methods test growth across graded concentrations, often in twofold steps.

The subject of assay [2] is P. aeruginosa A1124. Briefly: MIC by broth microdilution (NCCLS), P. aeruginosa A1124. Type of assay: cell-based, Pseudomonas aeruginosa. As to conditions: strain A1124, cation-adjusted Mueller-Hinton Broth, pH 7.2-7.3; for MIC: Pseudomonas aeruginosa. How it is done:
as §1

Assay [3] concerns A. baumanii T6474. Briefly: MIC by broth microdilution (NCCLS), A. baumanii T6474. In kind it is cell-based, Acetinobacter baumannii. To be noted: strain T6474, cation-adjusted Mueller-Hinton Broth, pH 7.2-7.3; for MIC: Acinetobacter baumannii. How it is done:
as §1

Each structure is given as a SMILES string. In brackets after ≈: the same amount, converted by molar mass.

In assay [1] (second table, all Examples), `COc1ccc2nccc(CC(N)[C@H]3CC[C@H](NCC=Cc4cc(F)ccc4F)CC3)c2n1` (mixture of isomers) [Example 4, trans-{4-[(1RS)-1-amino-2-(6-methoxy-[1,5]naphthyridin-4-yl)-ethyl]-cyclohexyl}-[3-(2,5-difluoro-phenyl)-allyl]-amine] gave an MIC of 0.063 µg/mL (≈ 0.139 µM).
Take `COC(=O)c1ccc(CC(N)[C@H]2CC[C@H](NC/C=C/c3cc(F)ccc3F)CC2)c2nc(OC)ccc12` (mixture of isomers) [Example 5, 8-[(2RS)-2-amino-2-trans-{4-[(E)-3-(2,5-difluoro-phenyl)-allylamino]-cyclohexyl}-ethyl]-2-methoxy-quinoline-5-carboxylic acid methyl ester]: the “MIC S. aureus A798” value in assay [1] (second table, all Examples) was 0.125 µg/mL (≈ 0.245 µM).
Consider `COc1ccc2c(CO)ccc(CC(N)[C@H]3CC[C@H](NC/C=C/c4cc(F)ccc4F)CC3)c2n1` (mixture of isomers) [Example 6, [8-((2RS)-2-amino-2-trans-{4-[3-(E)-(2,5-difluoro-phenyl)-allylamino]-cyclohexyl}-ethyl)-2-methoxy-quinolin-5-yl]-methanol], for which, in assay [2], the “MIC P. aeruginosa A1124” value was determined as 0.5 µg/mL (≈ 1.04 µM). The “MIC S. aureus A798” value worked out at 0.125 µg/mL (≈ 0.26 µM) in assay [1] (second table, all Examples) and 0.125 µg/mL (≈ 0.26 µM) in assay [1] (table of typical results). The “MIC A. baumanii T6474” value in assay [3] was determined as 16 µg/mL (≈ 33.2 µM).
With `COc1cnc2cccc(CC(N)[C@H]3CC[C@H](NCc4ccc5c(n4)NC(=O)CS5)CC3)c2n1` (mixture of isomers) [Example 7, 6-(trans-{4-[(1RS)-1-amino-2-(3-methoxy-quinoxalin-5-yl)-ethyl]-cyclohexylamino}-methyl)-4H-pyrido[3,2-b][1,4]thiazin-3-one], the MIC in assay [1] (second table, all Examples) worked out at 0.063 µg/mL (≈ 0.132 µM).
`COc1cnc2cccc(CC(N)[C@H]3CC[C@@H](NCc4ccc5c(n4)NC(=O)CS5)CC3)c2n1` (mixture of isomers) [Example 8, 6-(cis-{4-[(1RS)-1-amino-2-(3-methoxy-quinoxalin-5-yl)-ethyl]-cyclohexylamino}-methyl)-4H-pyrido[3,2-b][1,4]thiazin-3-one] showed a minimum inhibitory concentration (MIC) in assay [1] (second table, all Examples) of 1 µg/mL (≈ 2.09 µM).
Still for that read-out and setting: with `COc1ccc2nccc(CC(N)[C@H]3CC[C@H](NCc4ccc5c(n4)NC(=O)CO5)CC3)c2n1` (mixture of isomers) [Example 9, 6-(trans-{4-[(1RS)-1-amino-2-(6-methoxy-[1,5]naphthyridin-4-yl)-ethyl]-cyclohexylamino}-methyl)-4H-pyrido[3,2-b][1,4]oxazin-3-one] the figure was 0.5 µg/mL (≈ 1.08 µM); with `COc1ccc2ncc(F)c(CC(N)[C@H]3CC[C@H](NCc4ccc5c(n4)NC(=O)CS5)CC3)c2c1` (mixture of isomers) [Example 10, trans-6-({4-[(1RS)-1-amino-2-(3-fluoro-6-methoxy-quinolin-4-yl)-ethyl]-cyclohexylamino}-methyl)-4H-pyrido[3,2-b][1,4]thiazin-3-one], 0.031 µg/mL (≈ 0.0625 µM).
On to `COc1ccc2ncc(F)c(CC(N)[C@H]3CC[C@@H](NCc4ccc5c(n4)NC(=O)CS5)CC3)c2c1` (mixture of isomers) [Example 11, cis-6-({4-[(1RS)-1-amino-2-(3-fluoro-6-methoxy-quinolin-4-yl)-ethyl]-cyclohexylamino}-methyl)-4H-pyrido[3,2-b][1,4]thiazin-3-one], for which the figures for the minimal inhibitory concentration (MIC) in assay [2], in assay [1] (table of typical results) and in assay [3] were 0.125 µg/mL (≈ 0.252 µM), 0.5 µg/mL (≈ 1.01 µM) and 4 µg/mL (≈ 8.07 µM), respectively. Further, the “MIC S. aureus A798” value in assay [1] (second table, all Examples) came out at 0.5 µg/mL (≈ 1.01 µM).
For `COc1ccc2ncc(F)c(CC(N)[C@H]3CC[C@H](NC/C=C/c4cc(F)ccc4F)CC3)c2c1` (mixture of isomers) [Example 12, trans-{4-[(1RS)-1-amino-2-(3-fluoro-6-methoxy-quinolin-4-yl)-ethyl]-cyclohexyl}-[3-(E)-(2,5-difluoro-phenyl)-allyl]-amine], the MIC in assay [1] (second table, all Examples) was ≤ 0.031 µg/mL.
On the same count and under the same terms, the result for `COc1ccc2ncc(F)c(CC(N)[C@H]3CC[C@@H](NC/C=C/c4cc(F)ccc4F)CC3)c2c1` (mixture of isomers) [Example 13, cis-{4-[(1RS)-1-amino-2-(3-fluoro-6-methoxy-quinolin-4-yl)-ethyl]-cyclohexyl}-[3-(E)-(2,5-difluoro-phenyl)-allyl]-amine] reads 0.063 µg/mL (≈ 0.134 µM).
Consider `COc1ccc2ncc(F)c(CC(N)[C@H]3CC[C@H](NCc4ccc5c(n4)NC(=O)CS5)CC3)c2n1` (mixture of isomers) [Example 14, trans-6-({4-[(1RS)-1-amino-2-(3-fluoro-6-methoxy-[1,5]naphthyridin-4-yl)-ethyl]-cyclohexylamino}-methyl)-4H-pyrido[3,2-b][1,4]thiazin-3-one], for which, in assay [1] (second table, all Examples), the MIC was ≤ 0.031 µg/mL.
Compound `COc1ccc2ncc(F)c(CC(N)[C@H]3CC[C@@H](NCc4ccc5c(n4)NC(=O)CS5)CC3)c2n1` (mixture of isomers) [Example 15, cis-6-({4-[(1RS)-1-amino-2-(3-fluoro-6-methoxy-[1,5]naphthyridin-4-yl)-ethyl]-cyclohexylamino}-methyl)-4H-pyrido[3,2-b][1,4]thiazin-3-one] displayed an MIC in assay [1] (second table, all Examples) of 0.25 µg/mL (≈ 0.503 µM).
Still for that read-out and setting: with `COc1ccc2ncc(F)c(CC(N)[C@H]3CC[C@H](NCc4ccc5c(c4)NC(=O)CO5)CC3)c2c1` (mixture of isomers) [Example 16, trans-6-({4-[(1RS)-1-amino-2-(3-fluoro-6-methoxy-quinolin-4-yl)-ethyl]-cyclohexylamino}-methyl)-4H-benzo[1,4]oxazin-3-one] the figure was 0.063 µg/mL (≈ 0.132 µM); with `COc1ccc2nccc(CC(N)[C@H]3CC[C@H](NCc4ccc5c(c4)NC(=O)CO5)CC3)c2c1` (mixture of isomers) [Example 19, trans-6-({4-[(1RS)-1-amino-2-(6-methoxy-quinolin-4-yl)-ethyl]-cyclohexylamino}-methyl)-4H-benzo[1,4]oxazin-3-one], 1 µg/mL (≈ 2.17 µM).
`COc1ccc2nccc(CC(N)[C@H]3CC[C@H](NCc4ccc5c(n4)NC(=O)CS5)CC3)c2c1` (mixture of isomers) [Example 20, trans-6-({4-[(1RS)-amino-2-(6-methoxy-quinolin-4-yl)-ethyl]-cyclohexylamino}-methyl)-4H-pyrido[3,2-b][1,4]thiazin-3-one]: the “MIC S. aureus A798” value in assay [1] (second table, all Examples) was found to be 0.125 µg/mL (≈ 0.262 µM).
Regarding `COc1ccc2nccc(CC(N)[C@H]3CC[C@H](NCc4ccc5c(n4)NC(=O)CO5)CC3)c2c1` (mixture of isomers) [Example 21, trans-6-({4-[(1RS)-amino-2-(6-methoxy-quinolin-4-yl)-ethyl]-cyclohexylamino}-methyl)-4H-pyrido[3,2-b][1,4]oxazin-3-one], the “MIC S. aureus A798” value in assay [1] (second table, all Examples) is 0.5 µg/mL (≈ 1.08 µM).
For `COc1ccc2nccc([C@@H](O)[C@H](N)[C@H]3CC[C@H](NCc4ccc5c(n4)NC(=O)CS5)CC3)c2n1` (relative stereo) [Example 3, 6-(trans-{4-[(1R*,2R*)-1-amino-2-hydroxy-2-(6-methoxy-[1,5]naphthyridin-4-yl)-ethyl]-cyclohexylamino}-methyl)-4H-pyrido[3,2-b][1,4]thiazin-3-one], inhibition of growth in assay [1] (second table, all Examples) (MIC) required 0.125 µg/mL (≈ 0.253 µM).
For the compound `COc1ccc2nccc([C@@H](O)[C@H](N)[C@H]3CC[C@H](NCc4ccc5c(c4)OCCO5)CC3)c2n1` (relative stereo) [Example 17, trans-(1R*,2R*)-2-amino-2-{4-[(2,3-dihydro-benzo[1,4]dioxin-6-ylmethyl)-amino]-cyclohexyl}-1-(6-methoxy-[1,5]naphthyridin-4-yl)-ethanol], the MIC in assay [2] was 2 µg/mL (≈ 4.31 µM); in assay [1] (table of typical results) it was 0.063 µg/mL (≈ 0.136 µM); in assay [3], 16 µg/mL (≈ 34.4 µM). In addition, the “MIC S. aureus A798” value in assay [1] (second table, all Examples) turned out to be 0.063 µg/mL (≈ 0.136 µM).
On to `COc1ccc2nccc([C@@H](O)[C@H](N)[C@H]3CC[C@H](NC/C=C/c4cc(F)ccc4F)CC3)c2n1` (relative stereo) [Example 18, trans-(1R*,2R*)-2-amino-2-{4-[(E)-3-(2,5-difluoro-phenyl)-allylamino]-cyclohexyl}-1-(6-methoxy-[1,5]naphthyridin-4-yl)-ethanol], for which, in assay [1] (second table, all Examples), the MIC was ≤ 0.031 µg/mL.
For the compound `COc1ccc2nccc(C[C@@H](N)[C@H]3CC[C@H](NCc4ccc5c(n4)NC(=O)CS5)CC3)c2n1` [Example 1, 6-(trans-{4-[(1R)-1-amino-2-(6-methoxy-[1,5]naphthyridin-4-yl)-ethyl]-cyclohexylamino}-methyl)-4H-pyrido[3,2-b][1,4]thiazin-3-one], the values for the MIC in assay [2], in assay [1] (table of typical results) and in assay [3] were 0.063 µg/mL (≈ 0.132 µM), 4 µg/mL (≈ 8.36 µM) and 32 µg/mL (≈ 66.9 µM), respectively. Also, the “MIC S. aureus A798” value in assay [1] (second table, all Examples) turned out to be 4 µg/mL (≈ 8.36 µM).
Regarding `COc1ccc2nccc(C[C@H](N)[C@H]3CC[C@H](NCc4ccc5c(n4)NC(=O)CS5)CC3)c2n1` [Example 2, 6-(trans-{4-[(1S)-1-amino-2-(6-methoxy-[1,5]naphthyridin-4-yl)-ethyl]-cyclohexylamino}-methyl)-4H-pyrido[3,2-b][1,4]thiazin-3-one], in assay [1] (second table, all Examples), 0.125 µg/mL (≈ 0.261 µM) was the least that counted as inhibitory (MIC).

Broadly, the MIC is the smallest concentration in the dilution series that meets the test's criterion for growth inhibition.
